Reference: patent US20190365717A1, “TREATING PATHOLOGICAL CONDITIONS BY DIRECT AND INDIRECT TARGETING OF SIRPA-CD47 INTERACTION” (STICHTING HET NEDERLANDS KANKER INSTITUUT-ANTONI VAN …, priority 2017, published 2019)

How the values were obtained:
recombinant human isoQC = target: T1, recombinant human isoQC (Homo sapiens, UniProt Q9NXS2); test: IsoQC assay (coupled H-Gln-AMC / pGAPase fluorescence assay); format: biochemical; details: 10 μM H-Gln-AMC, 1 hour at 37° C., maximum and ten- and hundredfold lower concentrations
T1 construct: enzymatically active region of human isoQC (S53-L382, Huang et al., JBC, 286, 12439-12449, 2011); GST with enterokinase site (N, cleaved yes); made in house; host or cells: E. coli, pET41(+) vector
T1 sequence (Q9NXS2 53-382): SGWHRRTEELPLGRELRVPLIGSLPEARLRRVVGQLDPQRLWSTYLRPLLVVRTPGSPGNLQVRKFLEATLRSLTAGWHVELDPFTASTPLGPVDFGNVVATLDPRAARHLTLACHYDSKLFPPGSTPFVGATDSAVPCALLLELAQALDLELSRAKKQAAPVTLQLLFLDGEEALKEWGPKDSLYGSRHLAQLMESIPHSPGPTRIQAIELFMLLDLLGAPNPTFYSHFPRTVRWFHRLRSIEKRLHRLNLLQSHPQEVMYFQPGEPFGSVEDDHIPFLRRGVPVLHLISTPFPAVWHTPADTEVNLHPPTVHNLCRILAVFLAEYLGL
Source text: The Golgi luminal, enzymatically active region of human isoQC (S53-L382, Huang et al., JBC, 286, 12439-12449, 2011) was obtained by expression in E. coli of an N-terminally GST-Enterokinase, C-terminally 6× His tagged construct (“6× His” disclosed as SEQ ID NO: 15) in the pET41(+) vector and subsequent purification and enterokinase digestion. Absence of pyroglutamylating activity in an enzymatic dead variant that was cloned, expressed and purified in parallel ruled out that the purification strategy isolates any endogenously present pyroglutamylating activity.
Inhibition of isoQC activity was assessed by incubating 30 μl 50 mM Tris pH8.0 solutions containing 10 μM H-Gln-AMC (Bachem cat.no. 4003647.0100, dissolved in 25 mM HEPES), 1% DMSO and 750 pg/μl recombinant isoQC in the presence or absence of inhibitor for 1 hour at 37° C. A 5-minute incubation at 98° C. followed to stop the reaction and inactivate the enzyme. Next, 25 μl of the reaction was transferred to a 384-well plate containing 25 μl pGAPase enzyme (1:200 diluted in 50 mM Tris pH8.0, 10 mM Dithiothreitol (DTT), enzyme obtained from Qiagen, cat. no. 34342) and incubated for 10 minutes at 37° C. before reading the fluorescence using a SpectraMax Id3 platereader with excitation wavenlength set at 380 nm and emission at 450 nm. Readings were corrected by subtracting background signal from a control well containing no isoQC enzyme and subsequently normalized by dividing through the signal of a well containing enzyme but no inhibitor.

[1] = system: CD47 pyroglutamylation in HAP1 cells; test: QPCTL inhibitor assay: CD47 pyroglutamylation (CC2C6 / 2D3 staining); format: cell-based, human; details: 48 hours, 10-fold dilutions, maximum 500 μM
Experimental: An equal volume of HAP1 (200,000/well), A375 (50,000/well) or RKO (100,000/well) cells was added and QPCTL and CD47 knockout cells were taken along in control wells.
After 48 hours incubation at 37 degrees, 5% CO2, cells were washed once with PBS before releasing with 100 μl TrypIE dissociation reagent per well and transfer to V-bottom 96-well plates (Greiner Bio-One) pre-filled with 100 μl FACS buffer (10% FCS/PBS). Cells were spun 3′ at 3000 rpm, washed once with FACS buffer and again spun 3′ at 3000 rpm. Next, cells were incubated for 2 hours at 4 degrees with a mix of 1:500 FITC-conjugated anti-human CD47 clone 2D3 and 1:500 Alexa647-conjugated anti-human CD47 clone CC2C6 for the pyroglutamylation assays. Alternatively, cells were incubated with 50 μl 1:50 recombinant SIRPα-human Fc fusion protein in FACS buffer for the SIRPα assays. For the SIRPα assays, two wash steps followed by spinning 3′ at 3000 rpm and resuspending the cells in FACS buffer before spinning a final time and resuspending and incubating the pellet for 1 hour at 4 degrees in 100 μl 1:100 APC-conjugated rabbit-anti-human antibody. Cells of both assay were spun down and washed twice with FACS buffer to remove unbound antibody. Cells were again spun down and taken up in 300 μl FACS buffer before analyzed on a FACSAria III using FACS Diva software (BS Biosciences). The median fluorescence intensity (MFI) of each sample was linearly transformed to scale between the MFIs of wildtype and CD47 knockout cells in case of the 2D3 antibody and the wildtype and QPCTL knockout cells in case of the CC2C6 antibody.

Ba/F3-Her2 cells [2] = test: ADCC of 51Cr-labeled Ba/F3-Her2 target cells by human effector cells; format: cell-based, murine; details: human neutrophils, with anti-Her2, 10 μM SEN177, 4 h 51Cr-release
Experimental: (§1) Briefly, 1×10^6 target cells were labelled with 100 μCi (3.7 MBq) ^51Cr for 2 h. After extensive washing, cell numbers were adjusted to 1×10^6/mL. The polymorphonuclear leukocyte (PMN) fraction from peripheral blood of healthy donors (UMC Utrecht, Utrecht) was isolated by Ficoll/Histopaque separation (GE Healthcare; Sigma-Aldrich). Effector cells and target cells were added to round-bottom microtiter plates (Corning Incorporated) (E:T ratio=40:1), in the presence of the indicated concentration of a Her2 antibody. After 4 h incubation at 37° C., ^51Cr release was measured. Percentage specific lysis was calculated using the following formula: ((experimental cpm—basal cpm)/(maximal cpm—basal cpm))×100, with maximal lysis determined in the presence of 3% triton and basal lysis determined in the absence of antibody and effector cells. […] All experiments were performed in triplicate.

Ba/F3-Her2 cells [3] = test: ADCC of 51Cr-labeled Ba/F3-Her2 target cells by mouse effector cells; format: cell-based; details: murine immune cells isolated from whole blood as effector cells, anti-Her2 IgA1
Experimental: as §1
In brief, to obtain mouse effector cells, blood was collected from pegylated granulocyte colony-stimulating factor (G-CSF)-stimulated human FcaRl transgenic Balb/c mice from the retro-orbital plexus into Li-heparin tubes. Erythrocytes were lysed by incubation in water for […], and total leukocytes were resuspended in medium (half the volume of the original blood volume). 50 μL of total leukocytes, containing ˜70% PMNs, were added per well.

[4] = system: A375, A431, Raji, A549, DLD1, HAP1, RKO and SKBR3 cells; test: SEN177 and PQ912 treatment, cell surface binding of hSIRPα-Fc and anti-CD47 antibodies, flow cytometry; format: cell-based, human; design: dose or concentration left out as unconfirmed; details: refreshed every day, four days
Experimental: (§2) After indicated antibody stainings, cells were washed with FACS buffer to remove unbound antibody and DAPI was added to allow dead cell exclusion and samples were analyzed on an LSRII or LSRFortessa (BD Bioscience).
(§3) DMSO or inhibitor was refreshed every day and after four days, cells were analyzed by flow cytometry.

[5] = system: pyroglutamate-modified CD47 in A375 melanoma cells; test: Analysis of αCD47-CC2C6 / αCD47-B6H12 immunoprecipitates of HA-tagged CD47; format: cell-based, human; details: untreated versus SEN177-treated cells, 10 μM SEN177 for 16 h
Experimental: At the day of analysis, cells were starved in methionine- and cysteine-free medium for 1 h at 37° C. Subsequently, cells were pulse-labelled with 0.75 mCi/600 μL [^35S]Cys/[^35S]Met (PerkinElmer) for the indicated time period. Cells were washed with PBS to remove residual [^35S]Cys/[^35S]Met and then cultured in regular medium with 1 mM ‘cold’ methionine and cysteine for the indicated time period. Cells were lysed and [^35S]Cys/[^35S] incorporation was measured via TCA precipitation of aliquots of lysates on 3 MM Whatman paper and counting in a Perkin Elmer LSC 2800 ultima gold scintillation counter. Next, for pre-clearing and IP purposes, purified mouse IgG1 kappa isotype control (Biolegend, 400102), anti-human CD47 antibody B6H12.2 (Novus, NBP2-31106), and purified anti-human CD47 antibody CC2C6 (Biolegend, 323102) was bound to protein-G-coated Dynabeads (ThermoFisher Scientific) according to manufacturer's instructions. […] Next, immunoprecipitates were heated at 50° C. for 10 min with 2× Laemmli buffer and analyzed using a Novex NuPAGE Gel Electrophoresis System (Thermo Fisher Scientific). Gels were treated with 1 M Na salicylate pH 5.6 before drying and then analyzed on Fujifilm BAS-MP phosphor imager screens 4° C. Screens were analyzed on a lasser scanner Typhoon FLA 9500.

[6] = system: B16F10 melanoma cells and Ba/F3-Her2 pro-B cells; test: SEN177 treatment of murine cells, mSIRPα-Fc and αmCD47-MIAP301 binding, flow cytometry; format: cell-based; details: SEN177, both cell lines
Experimental: as §2, §3

[7] = system: QPCTL-deficient lung cancer (A549) and epidermoid carcinoma (A431) cells; test: SEN177 treatment of QPCTL-deficient cells, SIRPα binding by flow cytometry; format: cell-based, human
Experimental: as §2, §3

[8] = system: short-term cultures of melanoma xenografts; test: SEN177 treatment of short-term melanoma PDX cell lines, FACS binding; format: cell-based, human; details: 10 μM SEN177 for 4 days, six cultures
Source text: Cell lines: Short-term cell lines from primary melanoma patient-derived xenografts (PDX) were generated as described (Kemper et al., EMBO Mol. Med. 7, 1104-1118, 2015) and were a gift from D. Peeper and K. Kemper. […]

human QPCTL = human QPCTL (Homo sapiens, UniProt Q9NXS2); details: cited from earlier work
human QPCTL, sequence (Q9NXS2 whole entry): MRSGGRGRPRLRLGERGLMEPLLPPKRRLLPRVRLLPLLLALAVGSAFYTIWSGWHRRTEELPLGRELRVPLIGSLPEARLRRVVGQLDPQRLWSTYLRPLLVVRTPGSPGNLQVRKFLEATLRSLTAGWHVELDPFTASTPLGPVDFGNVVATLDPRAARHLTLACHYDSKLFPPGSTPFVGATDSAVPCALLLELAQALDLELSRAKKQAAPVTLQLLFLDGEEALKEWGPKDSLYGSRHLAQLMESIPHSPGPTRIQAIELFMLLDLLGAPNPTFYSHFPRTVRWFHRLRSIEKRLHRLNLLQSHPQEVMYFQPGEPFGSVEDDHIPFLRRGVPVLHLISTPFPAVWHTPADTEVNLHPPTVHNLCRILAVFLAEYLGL

[9] = system: HAP1, RKO, A375, A549 and DLD1 cells; details: PBD150 1000 microM, 72 hours, medium refreshed every 24 hours
Experimental: (§4) Surface levels of CD47 were assessed by performing immunohistochemical staining cells with fluorochrome labelled antibodies directed against CD47 (clones CC2C6, 2D3, B6H12., see Table 1) at a dilution of 1:50 in PBS containing 0.5% w/v BSA (Sigma) and 0.2% w/v sodium azide (Sigma) (“FACS buffer”) for 30 minutes, at 4° C., protected from light. SIRPα binding to CD47 was assessed by incubating cells with recombinant extracellular domain of human SIRPα fused to human IgG ((SIRPα-Fc); Recombinant Human SIRP alpha/CD172a Fc Chimera Protein see Table 1) at a dilution of 1:50 in FACS buffer for 30 minutes, at 4° C., protected from light. After 1 wash with FACS buffer to remove unbound SIRPα-Fc, cells were immunostained with a fluorochrome labelled antibody against human IgG (HP6017, see Table 1) for 30 minutes, at 4° C., protected from light. After 2 washes with FACS buffer to remove unbound antibody, immunohistochemical staining intensity or binding intensity was analyzed on an LSRII (BD Bioscience).
Next, HAP1, RKO, A375, A549 and DLD1 cells were treated for 72 hours with PBD150 (1000 microM) or vehicle and medium was refreshed every 24 hours.

HAP1 cells = test: Small molecule inhibition of glutaminyl cyclase: anti-CD47 clone CC2C6 binding, flow cytometry; format: cell-based, human
Experimental: as §4

QPCT and QPCTL = details: Phase 1 study with 200 healthy young and elderly volunteers; cited from earlier work
[10] = Phase 1 study with 200 healthy young and elderly volunteers; cited from earlier work

SMILES: Cc1ccc(C2C(=S)NC(=O)N2c2ccc3[nH]cnc3c2)c(F)c1F (centres unmarked) [compound 000040, 1-(1H-benzo[d]imidazol-5-yl)-5-(2,3-difluoro-4-methylphenyl)-4-thioxoimidazolidin-2-one]
- isoQC activity (recombinant human isoQC): did show some activity
- pE-CD47 signal (antibody clone CC2C6) [1]: did not show convincing reactivity

SMILES: O=C(C1=C(O)C(=O)N(c2ccc3[nH]cnc3c2)C1c1ccc(Cl)c(Cl)c1)C1CCCCC1 (centres unmarked) [compound 000015, 1-(1H-Benzoimidazol-5-yl)-4-cyclohexanecarbonyl-5-(3,4-dichloro-phenyl)-3-hydroxy-1,5-dihydro-pyrrol-2-one]
- isoQC activity (recombinant human isoQC): did show some activity
- pE-CD47 signal (antibody clone CC2C6) [1]: did not show convincing reactivity

SMILES: Cn1cnnc1C1CCN(c2ncccc2-c2ccc(F)nc2)CC1 [SEN177]
- neutrophil-mediated lysis of tumor cells (Ba/F3-Her2 cells [2]): synergized
- lysis of tumor cells by murine immune cells (Ba/F3-Her2 cells [3]): same effects
- CD47 surface levels [4]: unaffected
- SIRPα-Fc staining ([4]; 8 out of 8 cell lines tested, same extent as in QPCTL deficient cells): reduced
- pyroglutamate-modified CD47 [5]: near-complete inhibition
- binding of SIRPα (mSIRPα-Fc) [6]: reduced
- total CD47 surface levels [6]: without altering
- SIRPα binding [7]: did not further reduce
- CD47 protein levels [8]: unaltered
- Binding of SIRPα ([8]; versus untreated cells): significantly decreased

SMILES: O=C(C1=C(O)C(=O)N(c2ccc3[nH]cnc3c2)C1c1cccc(F)c1F)c1ccccc1 (centres unmarked) [compound 000033, 1-(1H-benzo[d]imidazol-5-yl)-4-benzoyl-5-(2,3-difluorophenyl)-3-hydroxy-1H-pyrrol-2(5H)-one]
- isoQC activity (recombinant human isoQC): did show some activity
- pE-CD47 signal (antibody clone CC2C6) [1]: did not show convincing reactivity

SMILES: Cc1ccc(C2C(c3ccc(O)cc3)=C(O)C(=O)N2CCCn2ccnc2)cc1 (centres unmarked) [compound 000046, 3-Hydroxy-4-(4-hydroxy-phenyl)-1-(3-imidazol-1-yl-propyl)-5-p-tolyl-1,5-dihydro-pyrrol-2-one]
- isoQC activity (recombinant human isoQC): did show some activity
- pE-CD47 signal (antibody clone CC2C6) [1]: did not show convincing reactivity

SMILES: COc1ccc(NC(=S)NCCCn2ccnc2)cc1OC [PBD150]
- Ki (human QPCTL): 60 nM
- 2D3 binding [9]: unchanged
- CC2C6 binding [9]: decreased
- SIRPα-Fc binding [9]: decreased
- CC2C6 binding after withdrawal (HAP1 cells; HAP1 cells subsequently cultured 48 hrs without PBD150): restored to normal levels
- CC2C6 bound to the surface (HAP1 cells; HAP1 cells, 72 hours, PBD150 1000 microM): decreased

SMILES: CCCOc1ccc([C@H]2CNC(=O)N2c2ccc3[nH]cnc3c2)cc1 [PQ912, (S)-1-(1H-benzo[d]imidazole-5-yl)-5-(4-propoxyphenyl)imidazolidin-2-one]
- level of QPCT and QPCTL inhibition (QPCT and QPCTL): high level
- safety and tolerability [10]: safe and well-tolerated
